Assay results: US20040033967A1, “Alkylated hexitol nucleoside analogues and oligomers thereof” (priority 2000, published 2004)

Experiments:
Type in all cases: binding
[1] = system: HNA complement; assay: Tm of hexameric hexitol sequences hybridised with HNA complement; conditions: hexamers
Excerpt: (§1) Hybridisation is the sequence specific base pair hydrogen bonding of bases of the oligonucleotide to bases of target RNA or DNA Such base pairs are said to be complementary to one another. In determining the extent of hybridization of an oligonucleotide to a complementary nucleic acid, the relative ability of an oligonucleotide to bind to the complementary nucleic acid may be compared by determining the melting temperature of a particular hybridisation complex. The melting temperature (Tm), a characteristic physical property of double helices, denotes the temperature in degrees centigrade, at which 50% helical (hybridized) versus coil (unhybridized) forms are present. Tm is measured by using the UV spectrum to determine the formation and breakdown (melting) of the hybridisation complex. Base stacking which occurs during hybridisation, is accompanied by a reduction in UV absorption (hypochromicity). Consequently, a reduction […]. The higher the Tm, the greater the strength of the bonds between the strands.
As an example a study with pyrimidine hexamers was done as depicted in Table 2. […]

[2] = system: RNA complement; assay: Tm of hexameric hexitol sequences hybridised with RNA complement; conditions: hexamers
Excerpt: as §1
However, this increase is less pronounced than the increase in thermal stability obtained by modifying the nucleobase with a methyl substituent in the 5-position (ΔTm=+1.1° C./modification), (compare entry A and D). […]

[3] = system: complementary RNA; assay: Thermal stability of octameric HNA sequences versus RNA; conditions: octamers versus RNA, entries C and D
Excerpt: as §1, with “strands. The results in Table 3 confirm the results of Table 2 (example 35). […] The effect is however less than for the duplexes containing ANA or those containing the 5-methyl modification (entry E with a ΔTm/modification=1° C. and C with ΔTm/modification=2° C., respectively). […]” for “strands.”

Row | Compound | ΔTm compared to the unmodified HNA:HNA duplex ([1]; complementary HNA, Table 2) | ΔTm compared to HNA, pairing with hexitol oligonucleotides ([1]; hexitol (HNA, ANA) complements) | ΔTm compared to HNA, pairing with RNA sequences [2] | increase in Tm compared with the hexitol T reference [3] [°C]
1 | CO[C@@H]1[C@H](O)[C@@H](CO)OC[C@H]1n1ccc(=O)[nH]c1=O [1.1, 1,5-anhydro-3-O-methyl-2-(uracil-1-yl)-2-deoxy-altro-hexitol] | +0.6 ° C./modification |  |  | 
2 | COC1O[C@H](CO)[C@@H](O)C[C@@H]1n1cc(C)c(=O)[nH]c1=O (stereo partly drawn) [2.2, Methyl 2-(thymin-1-yl)-2,3-dideoxy-D-arabino-hexopyranoside] |  | ≈ +0.8 ° C./modification | ≈ +0.3 ° C./modification | 1.6
